Assay results: the supplement of paper PMC10307832

compound: CC(C)CCN1c2nc(Nc3cc(F)c(O)c(F)c3)ncc2N(C)C(=O)C1C [BI-D1870] + CS(=O)(=O)CCNCc1ccc(-c2ccc3ncnc(Nc4ccc(OCc5cccc(F)c5)c(Cl)c4)c3c2)o1 [Lapatinib] (partner 2 µM); test: relative viability (nuclei count vs DMSO), 5 days (fraction); higher = more cells survive; details: first compound 0.04 µM
Summary of the method: (§1)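 Relative viability divides the nuclei count in treated wells by that in vehicle wells. Lung cancer cell lines were seeded in 1536-well plates, dosed by pin tool the next day, and fixed and stained after 5 days in one step with final 0.05% Triton X-100, 1% formaldehyde and 1 ug/ml Hoechst. Dosing was a single drug or a fixed anchor-drug dose plus five library-drug doses (not always all listed) in √10 steps, and values are medians of duplicate plates imaged at 4×.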

Cell Line | relative viability
LC-2-ad | 1.04
NCI-H1563 | 1.08
NCI-H1944 | 0.932
NCI-H1975 | 1.1
RERF-LC-KJ | 0.886
ABC-1 | 1.19
NCI-H358 | 0.501
NCI-H650 | 1.04
PC-3 [JPC-3] | 0.455

same assay, conditions: first compound 0.1265 µM

Cell Line | relative viability
LC-2-ad | 0.932
NCI-H1563 | 0.898
NCI-H1944 | 0.669
NCI-H1975 | 0.865
RERF-LC-KJ | 0.783
ABC-1 | 0.952
NCI-H358 | 0.413
NCI-H650 | 0.726
PC-3 [JPC-3] | 0.425

same assay, conditions: first compound 0.4 µM

Cell Line | relative viability
LC-2-ad | 0.975
NCI-H1563 | 0.817
NCI-H1944 | 0.659
NCI-H1975 | 0.858
RERF-LC-KJ | 0.8
ABC-1 | 1.05
NCI-H358 | 0.551
NCI-H650 | 0.836
PC-3 [JPC-3] | 0.463

same assay, conditions: first compound 1.265 µM

Cell Line | relative viability
LC-2-ad | 1.08
NCI-H1563 | 0.9
NCI-H1944 | 0.835
NCI-H1975 | 0.863
RERF-LC-KJ | 0.821
ABC-1 | 1.28
NCI-H358 | 0.504
NCI-H650 | 0.975
PC-3 [JPC-3] | 0.52

same assay, conditions: first compound 4 µM

Cell Line | relative viability
LC-2-ad | 0.971
NCI-H1563 | 0.917
NCI-H1944 | 0.768
NCI-H1975 | 0.464
RERF-LC-KJ | 0.863
ABC-1 | 1.02
NCI-H358 | 0.556
NCI-H650 | 0.879
PC-3 [JPC-3] | 0.385

compound: CC(C)CCN1c2nc(Nc3cc(F)c(O)c(F)c3)ncc2N(C)C(=O)C1C [BI-D1870] + C[C@@H](Oc1cc(-c2cnn(C3CCNCC3)c2)cnc1N)c1c(Cl)ccc(F)c1Cl [Crizotinib] (partner 1 µM); test: as above; details: first compound 0.04 µM
Summary of the method: as §1

Cell Line | relative viability
LC-2-ad | 0.51
NCI-H1563 | 0.878
NCI-H1944 | 1.19
NCI-H1975 | 1.05
RERF-LC-KJ | 0.892
ABC-1 | 1.19
NCI-H358 | 0.772
NCI-H650 | 0.672
PC-3 [JPC-3] | 1.01

same assay, conditions: first compound 0.1265 µM

Cell Line | relative viability
LC-2-ad | 0.454
NCI-H1563 | 0.893
NCI-H1944 | 0.978
NCI-H1975 | 0.988
RERF-LC-KJ | 0.853
ABC-1 | 0.49
NCI-H358 | 0.598
NCI-H650 | 0.667
PC-3 [JPC-3] | 0.898

same assay, conditions: first compound 0.4 µM

Cell Line | relative viability
LC-2-ad | 0.394
NCI-H1563 | 0.842
NCI-H1944 | 1.05
NCI-H1975 | 1.01
RERF-LC-KJ | 0.847
ABC-1 | 1.12
NCI-H358 | 0.475
NCI-H650 | 0.695
PC-3 [JPC-3] | 1.05

same assay, conditions: first compound 1.265 µM

Cell Line | relative viability
LC-2-ad | 0.544
NCI-H1563 | 0.905
NCI-H1944 | 1.36
NCI-H1975 | 1.03
RERF-LC-KJ | 0.857
ABC-1 | 0.988
NCI-H358 | 0.456
NCI-H650 | 0.662
PC-3 [JPC-3] | 1.05

same assay, conditions: first compound 4 µM

Cell Line | relative viability
LC-2-ad | 0.434
NCI-H1563 | 0.905
NCI-H1944 | 1.11
NCI-H1975 | 0.484
RERF-LC-KJ | 0.792
ABC-1 | 0.591
NCI-H358 | 0.213
NCI-H650 | 0.405
PC-3 [JPC-3] | 0.97

compound: O=c1ncccn1[C@@H]1O[C@H](CO)[C@@H](O)[C@H]1O [Zebularine] + COc1cccc2cc(-c3nc([C@H]4CC[C@H](C(=O)O)CC4)n4ncnc(N)c34)[nH]c12 [OSI-027] (partner 0.5 µM); test: as above; details: first compound 1 µM
Summary of the method: as §1

Cell Line | relative viability
LC-2-ad | 0.858
NCI-H1563 | 0.81
NCI-H1944 | 0.445
NCI-H1975 | 0.845
RERF-LC-KJ | 0.715
ABC-1 | 0.522
NCI-H358 | 0.862
NCI-H650 | 0.54
PC-3 [JPC-3] | 0.832

same assay, conditions: first compound 3.162 µM

Cell Line | relative viability
LC-2-ad | 0.559
NCI-H1563 | 0.776
NCI-H1944 | 0.466
NCI-H1975 | 0.695
RERF-LC-KJ | 0.523
ABC-1 | 0.413
NCI-H358 | 0.474
NCI-H650 | 0.524
PC-3 [JPC-3] | 0.701

same assay, conditions: first compound 10 µM

Cell Line | relative viability
LC-2-ad | 0.546
NCI-H1563 | 0.572
NCI-H1944 | 0.385
NCI-H1975 | 0.383
RERF-LC-KJ | 0.51
ABC-1 | 0.401
NCI-H358 | 0.378
NCI-H650 | 0.437
PC-3 [JPC-3] | 0.554

same assay, conditions: first compound 31.62 µM

Cell Line | relative viability
LC-2-ad | 0.573
NCI-H1563 | 0.89
NCI-H1944 | 0.434
NCI-H1975 | 0.335
RERF-LC-KJ | 0.548
ABC-1 | 0.367
NCI-H358 | 0.286
NCI-H650 | 0.356
PC-3 [JPC-3] | 0.663

same assay, conditions: first compound 100 µM

Cell Line | relative viability
LC-2-ad | 0.529
NCI-H1563 | 0.76
NCI-H1944 | 0.421
NCI-H1975 | 0.23
RERF-LC-KJ | 0.575
ABC-1 | 0.443
NCI-H358 | 0.177
NCI-H650 | 0.26
PC-3 [JPC-3] | 0.656

compound: CC(C)CCN1c2nc(Nc3cc(F)c(O)c(F)c3)ncc2N(C)C(=O)C1C [BI-D1870] + C[C@]1(O)C[C@@H](c2nc(-c3ccc4ccc(-c5ccccc5)nc4c3)c3c(N)nccn32)C1 [Linsitinib] (partner 1 µM); test: as above; details: first compound 0.04 µM
Summary of the method: as §1

Cell Line | relative viability
LC-2-ad | 0.874
NCI-H1563 | 1.4
NCI-H1944 | 1.34
NCI-H1975 | 1.01
RERF-LC-KJ | 0.919
ABC-1 | 0.857
NCI-H358 | 0.694
NCI-H650 | 1.12
PC-3 [JPC-3] | 0.959

same assay, conditions: first compound 0.1265 µM

Cell Line | relative viability
LC-2-ad | 0.821
NCI-H1563 | 1.1
NCI-H1944 | 1.18
NCI-H1975 | 0.849
RERF-LC-KJ | 0.882
ABC-1 | 0.835
NCI-H358 | 0.705
NCI-H650 | 0.733
PC-3 [JPC-3] | 0.913

same assay, conditions: first compound 0.4 µM

Cell Line | relative viability
LC-2-ad | 0.778
NCI-H1563 | 1.13
NCI-H1944 | 1.07
NCI-H1975 | 0.874
RERF-LC-KJ | 0.842
ABC-1 | 0.718
NCI-H358 | 0.812
NCI-H650 | 0.905
PC-3 [JPC-3] | 0.956

same assay, conditions: first compound 1.265 µM

Cell Line | relative viability
LC-2-ad | 0.722
NCI-H1563 | 1.07
NCI-H1944 | 1.38
NCI-H1975 | 0.94
RERF-LC-KJ | 0.814
ABC-1 | 0.946
NCI-H358 | 0.625
NCI-H650 | 0.704
PC-3 [JPC-3] | 1.02

same assay, conditions: first compound 4 µM

Cell Line | relative viability
LC-2-ad | 0.522
NCI-H1563 | 1.19
NCI-H1944 | 1.08
NCI-H1975 | 0.636
RERF-LC-KJ | 0.812
ABC-1 | 0.782
NCI-H358 | 0.381
NCI-H650 | 0.855
PC-3 [JPC-3] | 0.897
